From patent publication US20230321126A1 (priority 2020, published 2023)

Experiments:
[1] = system: cathepsin L; assay: Cathepsin L expression in A549 cells (Western blot); type: cell-based, human; details: 24 h
Experimental: Western blot analysis: A549 cells were treated with indicated concentrations of selected polyphenols and lysed using RIPA lysis buffer (Sigma, St. Louis, MO) supplemented with 1× Complete protease inhibitors (Roche Applied Science, Indianapolis, IN). The protein concentration was measured by the Dc protein assay (Bio-Rad, Hercules, CA). Proteins (50 μg/well) were separated on 8-16% gradient SDS-PAGE gels and transferred to a PVDF membrane. Specific proteins were detected with commercially available human anti-cathepsin L, anti-TMPRSS2, and anti-ACE2 monoclonal antibodies, all at 1:200 dilution, and anti-β-actin antibody as a loading control at 1:1000 dilution. Images were captured with Azure™ cSeries digital imaging system (Azure Biosystems, Dublin, CA) with auto-exposure settings. Densitometry was performed with NIH ImageJ software.
Cathepsin L expression: Expression of cathepsin L in cells was performed using Western blot. […] Next, cells were washed with 1×PBS, lysed, and processed according to procedure described below.
Western blot: A495 cells were lysed with lysis buffer [R IPA buffer plus 1× Protease Inhibitor (ThermoFisher Scientific, Waltham, MA)]. The protein estimation was performed with Dc Protein Assay (Bio-Rad, Hercules, CA). A 45 μg/well of protein was separated on 8-16% gradient SDS-PAGE gels and transferred to a PVDF membrane. […]

[2] = molecular target: RBD of SARS-CoV-2 spike protein / hACE2 receptor (Severe acute respiratory syndrome coronavirus 2, UniProt P0DTC2); type: binding; details: 100 μg/ml
[3] = molecular target: RBD of SARS-CoV-2 spike protein (Severe acute respiratory syndrome coronavirus 2, UniProt P0DTC2); details: Jena et al.; cited from earlier work
[4] = molecular target: T1, hACE2 (Homo sapiens, UniProt Q9BYF1); assay: ACE2 binding assay (ACE2 Inhibitor Screening Assay Kit); parameters: purchased BPS Bioscience
[5] = molecular target: T1, hACE2; details: Jena et al.; cited from earlier work
[6] = system: SARS-CoV-2 spike protein pseudo-typed virions; type: cell-based
[7] = system: SARS-CoV-2 spike protein pseudo-typed virions; type: cell-based; remark: listed apart in the source
[8] = system: A549 cells expressing SARS-CoV-2 spike protein / hACE2/A549 cells; type: cell-based, human; details: 25 μg/ml, 4 h
[9] = system: lysosomal/endosomal pH of A549 cells; assay: Endosomal/lysosomal pH assay in A549 cells; type: cell-based, human; details: 5.0-25 μg/ml; control approximately pH=5.0
Experimental: Acridine orange (Thermo Fisher Scientific, Waltham, MA) was added directly to each dish to reach a final concentration of 6.6 μg/ml. The cells were additionally incubated at 37° C. with 5% CO2 for 20 min. and washed three times with 1×PBS. Live Cell Imaging Solution (LCIS) (Thermo Fisher Scientific, Waltham, MA) was added to the wells, and images were taken using a Zeiss Axio Observer A1 fluorescence microscope with a 40× magnification. […] Results are expressed as a percentage of polyphenol-free control (mean+/−SD, n=3).
A concurrent experiment was performed using pHrodo™ Green AM Intracellular pH Indicator (Thermo Fisher Scientific, Waltham, MA) according to the manufacturer's protocol. […] Next, 10 μl of the pHrodo™ Green AM dye was added to 100 μl of PowerLoad™ to facilitates uniform cellular loading of AM esters, and the whole dye solution was transferred into 10 ml of LCIS. […] The plate was incubated for 30 min. at 37° C., washed again with LCIS, and fluorescence was measured at Ex/Em=509/533 nm wavelength using a spectrofluorometer (Tecan Group Ltd, Switzerland). pH identification was performed based on standard curve, using an Intracellular pH Calibration Buffer Kit according to the manufacturer's protocol (Thermo Fisher Scientific, Waltham, MA). […] Next, the fluorescence was measured Ex/Em=509/533 nm wavelength. […]

T1 sequence (Q9BYF1 18-805): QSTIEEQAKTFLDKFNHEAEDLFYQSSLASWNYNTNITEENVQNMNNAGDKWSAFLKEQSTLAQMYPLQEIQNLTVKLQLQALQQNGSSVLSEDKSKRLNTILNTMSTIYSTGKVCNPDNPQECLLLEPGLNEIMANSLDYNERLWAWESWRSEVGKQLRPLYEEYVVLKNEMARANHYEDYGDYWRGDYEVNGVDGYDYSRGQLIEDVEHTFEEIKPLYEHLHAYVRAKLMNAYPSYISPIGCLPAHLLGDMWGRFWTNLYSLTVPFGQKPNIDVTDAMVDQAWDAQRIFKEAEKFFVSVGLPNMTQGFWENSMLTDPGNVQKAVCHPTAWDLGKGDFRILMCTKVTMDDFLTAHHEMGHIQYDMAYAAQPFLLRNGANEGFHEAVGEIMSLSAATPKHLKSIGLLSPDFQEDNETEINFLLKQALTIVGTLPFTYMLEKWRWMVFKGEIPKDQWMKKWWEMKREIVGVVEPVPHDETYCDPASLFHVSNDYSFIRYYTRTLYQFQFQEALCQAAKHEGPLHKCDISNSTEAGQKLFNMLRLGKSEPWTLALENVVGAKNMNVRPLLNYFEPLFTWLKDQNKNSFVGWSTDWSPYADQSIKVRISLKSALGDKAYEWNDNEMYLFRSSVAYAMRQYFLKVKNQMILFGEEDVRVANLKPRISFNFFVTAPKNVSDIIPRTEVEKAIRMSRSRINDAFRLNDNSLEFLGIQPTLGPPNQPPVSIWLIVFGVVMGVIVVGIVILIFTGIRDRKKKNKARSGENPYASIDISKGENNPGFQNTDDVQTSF

| Compound | cathepsin L expression at protein level [1] | rank of inhibitory effect among 56 polyphenols and plant extracts [2] | binding affinity to viral spike protein [3] [kcal/mol] | concentration showing binding efficacy to ACE2 [4] [µg/mL] | binding affinity to hACE2 [5] [kcal/mol] | concentration from which significant inhibition was seen [6] [µg/mL] | binding of pseudo-typed virions to hACE2/A549 [7] | decrease of fusion [8] [%] | direct binding to ACE2 [4] | lysosomal/endosomal pH [9] |
| --- | --- | --- | --- | --- | --- | --- | --- | --- | --- | --- |
| COc1cc(/C=C/C(=O)CC(=O)/C=C/c2ccc(O)c(OC)c2)ccc1O [Curcumin] | neither brazilin nor curcumin downregulated cathepsin L expression | highest inhibitory effect | -10.5 | 10 to 25 | -8.9 | ≥ 5.0 | inhibit, in dose-dependent fashion | – | – | – |
| Oc1ccc2c(c1)OC[C@]1(O)Cc3cc(O)c(O)cc3[C@H]21 [Brazilin] | neither brazilin nor curcumin downregulated cathepsin L expression | highest inhibitory effect | – | – | – | – | inhibit, in dose-dependent fashion | 40 | does not bind to ACE2 directly | – |
| theaflavin-3,3′-digallate [TF-3] | – | – | – | – | – | – | inhibit, in dose-dependent fashion | – | – | 5.5-6.0 pH |
| catechin | – | – | -7.9 | – | -7.8 | – | – | – | – | – |
